# PubChem BioAssay (NCI)
#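 Interpolation was linear, between the two tested concentrations surrounding the appropriate level; five concentrations were tested over 48 hours in 96-well plates. GI50 is the concentration that inhibits growth by half. TGI: concentration producing complete growth inhibition.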
# Tests used:
# Assay in all cases: DTP human tumour cell line panel, 48 h
# MOLT-4 leukemia = system: MOLT-4 leukemia
# T-47D breast = system: T-47D breast
# RPMI-8226 leukemia = system: RPMI-8226 leukemia
# HT29 colon = system: HT29 colon
# SK-MEL-5 melanoma = system: SK-MEL-5 melanoma
# A498 renal = system: A498 renal
# HOP-92 NSCLC = system: HOP-92 NSCLC
# HCT-15 colon = system: HCT-15 colon
# SF-295 CNS = system: SF-295 CNS
# OVCAR-4 ovarian = system: OVCAR-4 ovarian
Structure (SMILES),GI50 (MOLT-4 leukemia),TGI (MOLT-4 leukemia),GI50 (T-47D breast),TGI (T-47D breast),GI50 (RPMI-8226 leukemia),TGI (RPMI-8226 leukemia),GI50 (HT29 colon),TGI (HT29 colon),GI50 (SK-MEL-5 melanoma),TGI (SK-MEL-5 melanoma),GI50 (A498 renal),TGI (A498 renal),GI50 (HOP-92 NSCLC),TGI (HOP-92 NSCLC),GI50 (HCT-15 colon),TGI (HCT-15 colon),GI50 (SF-295 CNS),TGI (SF-295 CNS),GI50 (OVCAR-4 ovarian),TGI (OVCAR-4 ovarian)
O=C1C(=O)c2ccccc2C(O)=C1CC=C(Br)Br,2.83 µM,> 100 µM,15.4 µM,81.2 µM,1.57 µM,31.1 µM,3.25 µM,53.5 µM,1.28 µM,16.6 µM,6.21 µM,31.3 µM,12.5 µM,76.4 µM,0.368 µM,> 100 µM,3.29 µM,> 100 µM,11.7 µM,75.9 µM
O=C(Nc1cc(Cl)cc(Cl)c1)c1ccc(NC2=C(Cl)C(=O)N(Cc3ccc(Cl)cc3Cl)C2=O)cc1,0.249 µM,1.53 µM,3.12 µM,73.9 µM,2.53 µM,10.9 µM,49.3 µM,> 100 µM,1.16 µM,2.65 µM,,,9.32 µM,27.5 µM,7.06 µM,95.3 µM,43.2 µM,> 100 µM,21.8 µM,> 100 µM
O=C(CNc1ccc2c(c1)C(=O)c1ccccc1C2=O)Nc1ccc2c(c1)C(=O)c1ccccc1C2=O,,,0.604 µM,2.32 µM,0.957 µM,3.46 µM,0.451 µM,1.69 µM,0.25 µM,0.669 µM,1.62 µM,3.16 µM,1.39 µM,2.98 µM,0.312 µM,0.972 µM,1.46 µM,2.89 µM,1.5 µM,4.05 µM
NC(N)=N/N=C\c1cccc(OCc2ccccc2)c1,11.1 µM,27.8 µM,1.55 µM,3.99 µM,2.33 µM,8.17 µM,1.83 µM,4.01 µM,1.66 µM,3.12 µM,11.4 µM,23.5 µM,2.05 µM,7.47 µM,3.29 µM,12.9 µM,4.64 µM,20.4 µM,5.93 µM,27 µM
Cc1ccc(-n2c3c(c4c(CN(C)C)c(O)ccc42)CCc2ccccc2C3=O)cc1,20.3 µM,39.3 µM,> 100 µM,> 100 µM,11 µM,30.5 µM,> 100 µM,> 100 µM,14.9 µM,28.9 µM,15.1 µM,49.1 µM,17.5 µM,40 µM,18.3 µM,35.8 µM,18.3 µM,35.9 µM,,
C#CCC(Cc1cnc2nc(N)nc(N)c2n1)c1ccc(C(=O)N[C@@H](CCC(=O)O)C(=O)O)cc1 (some centres undefined),< 0.01 µM,> 100 µM,> 100 µM,> 100 µM,< 0.01 µM,> 100 µM,< 0.01 µM,> 100 µM,< 0.01 µM,> 100 µM,> 100 µM,> 100 µM,,,< 0.01 µM,> 100 µM,< 0.01 µM,> 100 µM,0.975 µM,> 100 µM
c1ccc2[nH]c(-c3ccc(NN=Nc4ccncc4)cc3)nc2c1,> 100 µM,> 100 µM,93 µM,> 100 µM,6.3 µM,38.4 µM,,,24.1 µM,> 100 µM,,,91.5 µM,> 100 µM,17.7 µM,> 100 µM,16.4 µM,> 100 µM,39.5 µM,> 100 µM
Oc1cc(O)c2c(-c3c(O)c(-c4ccc(O)c(O)c4)[o+]c4cc(O)cc(O)c34)c(O)c(-c3ccc(O)c(O)c3)[o+]c2c1,,> 100 µM,,,,> 100 µM,,> 100 µM,,> 100 µM,,> 100 µM,,> 100 µM,,> 100 µM,,> 100 µM,,> 100 µM
COc1cc2c3c(n(CCCN)c(=O)c2cc1OC)-c1cc2c(cc1/C3=C\CCN)OCO2,0.0601 µM,,19.4 µM,> 100 µM,2.01 µM,> 40.3 µM,0.373 µM,10.6 µM,4.55 µM,11.8 µM,35.9 µM,97.2 µM,3.69 µM,> 49.4 µM,27 µM,> 100 µM,3.33 µM,,,
CCCCCC/C=C1\CCC(CN2CCCC2)C1=O (centres undefined),,> 87 µM,,,,5.56 µM,,34.2 µM,,32.8 µM,,38.4 µM,,32.4 µM,,22.8 µM,,34.1 µM,,49.1 µM
CCc1c(C#N)c(S[C@@H](C(N)=O)c2ccccc2)nc(N(C)C)c1C#N,,,> 100 µM,> 100 µM,> 100 µM,> 100 µM,> 100 µM,> 100 µM,,,1.3 µM,9.47 µM,,,> 100 µM,> 100 µM,3.81 µM,55.3 µM,,
O=C(Nc1cccc(Cl)c1)c1ccc(NC2=C(Cl)C(=O)N(Cc3ccccc3)C2=O)cc1,1.67 µM,4.89 µM,17.8 µM,> 54.4 µM,,,8.43 µM,> 100 µM,7.81 µM,19.4 µM,34.4 µM,96.2 µM,9.09 µM,29.5 µM,1.98 µM,4.76 µM,17.7 µM,56.9 µM,19.4 µM,> 61.7 µM
COc1ccc(/C=C\c2cc(OC)c(OC)c(OC)c2)cc1OC(=O)c1cccc(Cn2cc(CCOC(=O)[C@H](N)Cc3cn(C)c4ccccc34)nn2)c1,< 0.01 µM,18.8 µM,,,< 0.01 µM,2.23 µM,0.379 µM,> 20.9 µM,< 0.01 µM,0.0254 µM,< 0.01 µM,,0.206 µM,> 88.2 µM,< 0.01 µM,> 44 µM,0.0295 µM,12.5 µM,0.208 µM,> 85.4 µM
CC1(c2cccc3ccccc23)OC(=O)c2ccccc21 (centres undefined),,55.6 µM,,,,77.6 µM,,53.8 µM,,26.2 µM,,68.3 µM,,36.5 µM,,63.7 µM,,54.5 µM,,> 100 µM
CCC/C(=N/N=C(N)N)c1ccc(NC(=O)c2cc3cc(OC)ccc3[nH]2)cc1,,,7.06 µM,32.9 µM,2.13 µM,5.01 µM,4.49 µM,20 µM,10.1 µM,27 µM,19.9 µM,54.2 µM,1.89 µM,12.1 µM,14.5 µM,36.1 µM,10.5 µM,25.8 µM,3.74 µM,18.7 µM
O=C(c1ccco1)c1nc2cc(Cl)ccc2[n+]([O-])c1C(F)(F)F,27.1 µM,66.6 µM,27.5 µM,> 100 µM,10.8 µM,44 µM,52.9 µM,> 100 µM,20.3 µM,49.6 µM,> 100 µM,> 100 µM,,,32.7 µM,> 100 µM,94 µM,> 100 µM,29.2 µM,75.7 µM
O=c1ccn(C2OC(CO/N=C/c3ccc(O)c(O)c3O)C(O)C2O)c(=O)[nH]1 (centres undefined),,,21.8 µM,50.3 µM,49.5 µM,> 100 µM,28.9 µM,84.3 µM,19.4 µM,33.5 µM,15.4 µM,39.2 µM,> 100 µM,> 100 µM,20.5 µM,50.4 µM,10.5 µM,24.1 µM,18.9 µM,37.8 µM
O=C1c2cc3c(cc2-c2c1c1ccc(Cl)cc1c(=O)n2CCCNCCO)OCO3,0.031 µM,0.512 µM,,,0.145 µM,3.27 µM,0.135 µM,2.02 µM,0.387 µM,1.58 µM,1.27 µM,2.65 µM,1.08 µM,2.57 µM,0.677 µM,2.25 µM,0.0378 µM,1.38 µM,1.48 µM,3.32 µM
Cc1cc(S(N)(=O)=O)c(S/C(CC(C)C)=N\Nc2ccc([N+](=O)[O-])cc2)cc1Cl,4.57 µM,> 100 µM,3.1 µM,8.33 µM,2.58 µM,7.28 µM,3.88 µM,15.3 µM,11 µM,23.2 µM,,,,,5.22 µM,31.2 µM,2.31 µM,5.7 µM,5.01 µM,20.5 µM
O=C1C(Cl)=C(Nc2cccc(Cl)c2)C(=O)N1Cc1ccccc1Cl,0.37 µM,> 100 µM,,,1.82 µM,26 µM,5.45 µM,> 100 µM,3.37 µM,14.3 µM,11.8 µM,24.8 µM,8.28 µM,32.4 µM,3.96 µM,38.2 µM,0.476 µM,20.9 µM,12.4 µM,42.4 µM
O=NNc1ccc(S(=O)(=O)c2ccccc2)cn1,,> 100 µM,,> 100 µM,,,,> 100 µM,,,,> 100 µM,,,,> 100 µM,,> 100 µM,,> 100 µM
N#CC(C(=O)CCC(=O)C(C#N)c1ccccc1)c1ccccc1 (centres undefined),,> 100 µM,,,,> 100 µM,,> 100 µM,,> 100 µM,,> 100 µM,,> 100 µM,,> 100 µM,,> 100 µM,,> 100 µM
CCCCCCCCCCCCCC(=O)CC(=O)c1c(O)cccc1O,,52.7 µM,,,,72.4 µM,,> 100 µM,,> 100 µM,,> 100 µM,,89.7 µM,,58.8 µM,,> 100 µM,,> 100 µM
CC(=O)[CH-]C(=O)c1ccccc1.CC(=O)[CH-]C(=O)c1ccccc1.[Eu+3].[OH-].[OH3+],> 100 µM,> 100 µM,,,> 100 µM,> 100 µM,> 100 µM,> 100 µM,> 100 µM,> 100 µM,> 100 µM,> 100 µM,7.44 µM,99.7 µM,> 100 µM,> 100 µM,> 100 µM,> 100 µM,> 100 µM,> 100 µM
COc1ccc(/C=C/C(=O)c2ccc(SC)cc2)cc1OC,22.4 µM,> 100 µM,37.2 µM,> 100 µM,4.02 µM,21.2 µM,4.57 µM,87.5 µM,14.5 µM,31.7 µM,,,13.7 µM,31.2 µM,3.1 µM,13.3 µM,6.47 µM,40.2 µM,40.5 µM,> 100 µM
O=C1CCCCCCCC/C=C\CC(c2ccco2)O1 (centres undefined),20.8 µM,65.7 µM,13.1 µM,57 µM,43.2 µM,> 100 µM,27 µM,99.5 µM,18.9 µM,36.9 µM,,,17 µM,94.9 µM,23.5 µM,77.9 µM,25.4 µM,> 100 µM,,
COc1ccc(-n2nnnc2-c2c[nH]c3c(F)cc(F)cc23)cc1,> 100 µM,> 100 µM,> 100 µM,> 100 µM,> 100 µM,> 100 µM,> 100 µM,> 100 µM,> 100 µM,> 100 µM,36.5 µM,> 100 µM,,,> 100 µM,> 100 µM,24 µM,59.6 µM,55 µM,> 100 µM
Cc1ccccc1N=Nc1ccc(NC(=O)c2ccnn2C)c(C)c1,,,9.9 µM,> 100 µM,3.41 µM,> 100 µM,> 100 µM,> 100 µM,4.99 µM,72.2 µM,13.2 µM,42.6 µM,6.99 µM,34.9 µM,68.4 µM,> 100 µM,23.9 µM,> 100 µM,8.71 µM,> 100 µM
Clc1cc(Cc2cc(Cl)c(Cl)c3c2OCOC3)c2c(c1Cl)COCO2,,> 100 µM,,,,> 100 µM,,> 100 µM,,> 100 µM,,80.4 µM,,41.8 µM,,> 100 µM,,78.8 µM,,43.9 µM
COc1cc(C)c(Cl)cc1C1=NN(c2ccc(S(N)(=O)=O)cc2)C(/C=C/c2ccccc2)C1 (centres undefined),3.37 µM,64.4 µM,3.34 µM,16 µM,2.76 µM,7.93 µM,1.8 µM,4.07 µM,1.61 µM,3 µM,2.67 µM,5.71 µM,,,3.11 µM,> 100 µM,3.17 µM,13.6 µM,2.77 µM,24.9 µM
